What all share (type): cell-based
For assay [1], the target named is T1, GNAQ (T96S) (Homo sapiens, UniProt P50148, T96S).
T1 construct: BPS Bioscience (parental reporter cell line) 60406
T1 sequence (P50148 1-359 T96S): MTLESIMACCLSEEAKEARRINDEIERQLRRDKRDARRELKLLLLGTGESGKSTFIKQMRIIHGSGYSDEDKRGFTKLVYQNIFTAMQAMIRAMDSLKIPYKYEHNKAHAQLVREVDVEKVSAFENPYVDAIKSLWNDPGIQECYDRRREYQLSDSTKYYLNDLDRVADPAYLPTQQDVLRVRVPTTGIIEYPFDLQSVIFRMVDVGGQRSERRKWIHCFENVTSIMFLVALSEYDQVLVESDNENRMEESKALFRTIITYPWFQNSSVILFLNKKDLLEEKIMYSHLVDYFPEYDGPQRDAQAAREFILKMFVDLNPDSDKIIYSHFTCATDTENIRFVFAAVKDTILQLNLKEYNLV
Description: SRE luciferase reporter gene-HEK293 cell line, GNAQ (T96S). To be noted: Cell type T96S, 20% FBS induction, read-out: GNAQ inhibitory rate; for inhibition at 0.9 µM: analytical concentration 900 nM; for inhibition at 2.7 µM: analytical concentration 2,700 nM; for inhibition at 8.1 µM: analytical concentration 8,100 nM. The protocol:
7.5×10^4 SRE-293-GNAQ (WT) or SRE-293-GNAQ (T96S) cell lines were seeded in a 24-well plate and cultured in a carbon dioxide incubator at 37° C. SRE-293-GNAQ (WT) or SRE-293-GNAQ (T96S) cell lines was derived from additionally transfecting SRE Reporter—HEK293 Recombinant Cell Line (ERK Pathway) (Catalog number: 60406; BPS Bioscience) cells with an expression vector separately expressing GNAQ (WT) or GNAQ (T96S), and screening a stable expression cell line by the antibiotic, geneticin (type number 10131035; Thermo Fisher Scientific). GNAQ (WT) or GNAQ (T96) expression vector was derived from gene synthesis and point mutation modification of GenScript company's customized services.
After 48 hours of culture, the culture medium in the 24-well plate was replaced with minimal essential medium (MEM) containing only 0.1% fetal bovine serum (FBS) and the cells were cultured overnight.
After overnight culture, the compound to be tested was added to the cells and reacted for 2 hours, and the medium at this point was still MEM medium containing only 0.1% fetal bovine serum. After reacting with the compound to be tested for 2 hours, fetal bovine serum at a final concentration of 20% was added to the cells and reacted for at least 4 hours. After the reaction, the supernatant was removed. Next, 100 μL of cell lysis reagent CelLytic M Cell Lysis Reagent (Catalog number: C2978; Sigma) was added to the cells and aspirated repeatedly several times to form a cell lysate solution with the cells. The cell lysate solution was collected in a microcentrifuge tube and centrifuged at a high speed of 14,000 rpm for 5 minutes. After that, 30 μL of supernatant was taken out and placed in a 96-well white plate for luminescence analysis, and 30 μL of firefly luminescence analysis reagent (Catalog No. E1501; Promega) diluted 3-fold was added and mixed well, and then luminescence detection was performed with a plate enzyme immunoassay analyzer (ELISA reader) to evaluate the effect of the compound to be tested on MAPK signaling induced by GNAQ through the expression of the firefly luciferase reporter gene.
In order to confirm the effect of the compounds on MAPK signaling induced by GNAQ, the screened SRE-HEK293 cells capable of expressing exogenous GNAQ (WT) and GNAQ (T96S) genes were subjected to overnight serum starvation, and 2 hours before induction with 20% fetal bovine serum, the compound to be tested (one of Compound 1 to Compound 15 prepared above) was added to the cells, and after serum induction, the expression of the firefly luciferase reporter gene was measured. Through the above steps, the inhibition of the compound to be tested on GNAQ expression could be evaluated through the expression of the reporter gene in cells.
(Reporter assays use an easily measured gene product as a stand-in for the process of interest.)

Assay [2] has as its system MDA-MB-231. Description: Inhibition of growth of triple-negative breast cancer cells MDA-MB-231 (PrestoBlue). To be noted: Homo sapiens, 168 h, 7 days culture, 2% fetal bovine serum, read-out: Inhibitory activity (evaluated by IC50). As to the method: (§1) Triple-negative breast cancer cells, MDA-MB-231 and MDA-MB-231-OE-GNAQ (T96S) (additionally expressing GNAQ (T96S)) were cultured in L-15 medium and in a temperature-controlled incubator without need of additional offer of 5% carbon dioxide.
(§2) 1×10^3 of the cells mentioned above were seeded in a 96-well plate, placed in a temperature-controlled incubator and cultured overnight (at least 16 hours).
(§3) After overnight incubation, the supernatant was removed. Next, after 200 μL of cell culture medium (containing 2% fetal bovine serum) containing different concentrations of test compound was added to each well of the 96-well plate, the 96-well plate was placed in a 37° C. incubator for 7 days further culture. After that, an additional 30 μL of diluted PrestoBlue™ Cell Viability Reagent (Catalog Number: A13261; Thermo Fisher Scientific) (4 μL stock solution and 26 μL culture medium) was added to each well of the 96-well plate and the reaction was continued for further about 1 hour.
(§4) Finally, the fluorescence value at the wavelength of 535/615 nm of each well was read with a plate enzyme immunoassay analyzer, and the inhibitory rate of the compound on triple-negative breast cancer cells were calculated using the following formula.
(§5) Moreover, the half maximal inhibitory concentration (IC50) of the compound on the growth of triple-negative breast cancer cells was calculated with the inhibitory rate of compound on triple-negative breast cancer cells at each concentration through the online half maximal inhibitory concentration (IC50) calculation software, IC50 Calculator, provided by AAT Bioquest company on its website (https://www.aatbio.com/tools/ic50-calculator).
(§6) Finally, the inhibition of the compound on the growth of triple-negative breast cancer cells was evaluated by the calculated half maximal inhibitory concentration (IC50) of the compound on the growth of triple-negative breast cancer cells.
(§7) The inhibition of the compound on the growth of triple-negative breast cancer cells was evaluated by the half maximal inhibitory concentration (IC50) of the compound (one of Compound 1 to Compound 15 prepared above) on the growth of triple-negative breast cancer cells through the human triple-negative breast cancer cell lines MDA-MB-231 and MDA-MB-231-OE-GNAQ (T96S) (additionally expressing GNAQ (T96S)).

Assay [3] relates to MDA-MB-231-OE-GNAQ (T96S). Briefly: Inhibition of growth of triple-negative breast cancer cells MDA-MB-231-OE-GNAQ (T96S) (PrestoBlue). To be noted: Homo sapiens, 168 h, 7 days culture, 2% fetal bovine serum, read-out: Inhibitory activity (evaluated by IC50). The protocol: as §1, §2, §3, §4, §5, §6, §7

Molecules are shown by their SMILES. pIC50: −log10 of the molar value. Where only a bound is given, the exact number is not on record here.

Turning to `O=C(Nc1cccc(-c2cc(-c3cccc(C(F)(F)F)c3)ncn2)c1)Nc1cc(Cl)nc(Cl)c1` [Compound 14], in assay [1], the inhibition at 0.9 µM lay in the range of 10 to 39%, the inhibition at 2.7 µM fell in the range of 10 to 39% and the inhibition at 8.1 µM was greater than 70%. Further, in assay [2], the pIC50 (usually −log10 of the IC50, conventionally taken in molar units) was 5.60 to 6.51. Also, the pIC50 in assay [3] is 5.60 to 6.51.
Regarding `O=C(Nc1ccc(-c2nc(-c3ccccc3)ncc2Cl)cc1)Nc1cc(Cl)nc(Cl)c1` [Compound 15], in assay [1], the inhibition at 0.9 µM is less than 10%, the inhibition at 2.7 µM is 10 to 39% and the inhibition at 8.1 µM lay in the range of 40 to 70%. The pIC50 in assay [2] is 5.60 to 6.51. The pIC50 in assay [3] is 5.60 to 6.51.
For `O=C(Nc1ccc(-c2cccc(-c3ccncc3)n2)cc1)Nc1ccc(Cl)c(C(F)(F)F)c1` [Compound 12], in assay [1], the inhibition at 0.9 µM lay in the range of 10 to 39%, the inhibition at 2.7 µM fell in the range of 40 to 70% and the inhibition at 8.1 µM fell in the range of 40 to 70%. The pIC50 in assay [2] was 5.60 to 6.51. Further, the pIC50 in assay [3] is 5.60 to 6.51.
On to `O=C(Nc1ccc(-c2cccc(-c3cccc(C(F)(F)F)c3)n2)cc1)Nc1cc(Cl)nc(Cl)c1` [Compound 9], for which, in assay [1], the inhibition at 0.9 µM was less than 10%, the inhibition at 2.7 µM fell in the range of 10 to 39% and the inhibition at 8.1 µM is 40 to 70%. For the same molecule, in assay [2], the pIC50 was 5.60 to 6.51. Also, the pIC50 in assay [3] is 5.60 to 6.51.
Regarding `O=C(Nc1ccc(-c2ccnc(-c3ccncc3)n2)cc1)Nc1ccc(Cl)c(C(F)(F)F)c1` [Compound 6], in assay [1], the inhibition at 0.9 µM was in the range of 10 to 39%, the inhibition at 2.7 µM lay in the range of 10 to 39% and the inhibition at 8.1 µM was in the range of 40 to 70%. For the same molecule, the negative-log IC50 (pIC50) in assay [2] was 5.30 to 5.60. Further, the pIC50 in assay [3] is 5.30 to 5.60.
As to `N#Cc1cccc(-c2cccc(-c3ccc(NC(=S)Nc4cc(Cl)nc(Cl)c4)cc3)n2)c1` [Compound 11], in assay [1], the inhibition at 0.9 µM lay in the range of 10 to 39%, the inhibition at 2.7 µM lay in the range of 40 to 70% and the inhibition at 8.1 µM was greater than 70%. In addition, the negative-log IC50 (pIC50) in assay [2] is 5.60 to 6.51. Further, the pIC50 in assay [3] was 5.60 to 6.51.
As for `O=C(Nc1cccc(-c2ccnc(-c3cccc(C(F)(F)F)c3)n2)c1)Nc1cc(Cl)nc(Cl)c1` [Compound 2], in assay [1], the inhibition at 0.9 µM is less than 10%, the inhibition at 2.7 µM lay within 10 to 39% and the inhibition at 8.1 µM is greater than 70%. Moreover, the pIC50 in assay [2] is 5.60 to 6.51. In addition, the pIC50 in assay [3] was 5.60 to 6.51.
On to `N#Cc1cccc(-c2nccc(-c3cccc(NC(=O)Nc4cc(Cl)nc(Cl)c4)c3)n2)c1` [Compound 3], for which, in assay [1], the inhibition at 0.9 µM is less than 10%, the inhibition at 2.7 µM is 40 to 70% and the inhibition at 8.1 µM is greater than 70%. Further, the negative-log IC50 (pIC50) in assay [2] is 5.60 to 6.51. Further, the pIC50 in assay [3] is 5.60 to 6.51.
For `O=C(Nc1ccc(-c2ccnc(-c3cccc(C(F)(F)F)c3)n2)cc1)Nc1ccc(Cl)c(C(F)(F)F)c1` [Compound 8], in assay [1], the inhibition at 0.9 µM was less than 10%, the inhibition at 2.7 µM was less than 10% and the inhibition at 8.1 µM lay in the range of 10 to 39%. For the same molecule, the pIC50 in assay [2] is 5.60 to 6.51. The negative-log IC50 (pIC50) in assay [3] is 5.60 to 6.51.
With `O=C(Nc1ccc(-c2ccnc(-c3cccc(C(F)(F)F)c3)n2)cc1)Nc1cc(Cl)nc(Cl)c1` [Compound 7], in assay [1], the inhibition at 0.9 µM is less than 10%, the inhibition at 2.7 µM fell in the range of 10 to 39% and the inhibition at 8.1 µM was in the range of 10 to 39%. In assay [2], the pIC50 is 5.60 to 6.51. The pIC50 in assay [3] is 5.60 to 6.51.
With `FC(F)(F)c1cccc(-c2cccc(-c3ccc(NC(=S)Nc4cc(Cl)nc(Cl)c4)cc3)n2)c1` [Compound 10], in assay [1], the inhibition at 0.9 µM was less than 10%, the inhibition at 2.7 µM lay in the range of 40 to 70% and the inhibition at 8.1 µM was greater than 70%. For the same molecule, the pIC50 in assay [2] is 5.60 to 6.51. In assay [3], the pIC50 was 5.60 to 6.51.
Take `O=C(Nc1cccc(-c2cccc(-c3ccncc3)n2)c1)Nc1cc(Cl)nc(Cl)c1` [Compound 13]: in assay [1], the inhibition at 0.9 µM was in the range of 10 to 39%, the inhibition at 2.7 µM lay in the range of 40 to 70% and the inhibition at 8.1 µM was greater than 70%. Also, the pIC50 in assay [2] is 5.60 to 6.51. For the same molecule, in assay [3], the pIC50 was 5.60 to 6.51.
For the molecule `O=C(Nc1cccc(-c2ccnc(-c3cccc(C(F)(F)F)c3)n2)c1)c1cc(Cl)nc(Cl)c1` [Compound 5], in assay [1], the inhibition at 0.9 µM is less than 10%, the inhibition at 2.7 µM is less than 10% and the inhibition at 8.1 µM was less than 10%. Besides, the pIC50 in assay [2] was 5.60 to 6.51. Also, in assay [3], the pIC50 was 5.60 to 6.51.
`O=C(Nc1cccc(-c2ccnc(-c3ccc(F)c(F)c3)n2)c1)Nc1cc(Cl)nc(Cl)c1` [Compound 4]: in assay [1], the inhibition at 0.9 µM was less than 10%, the inhibition at 2.7 µM was in the range of 10 to 39% and the inhibition at 8.1 µM lay in the range of 40 to 70%. Besides, in assay [2], the negative-log IC50 (pIC50) is 5.60 to 6.51. The pIC50 in assay [3] was 5.60 to 6.51.
In the case of `O=C(Nc1cccc(-c2ccnc(-c3ccnc(Cl)c3)n2)c1)Nc1cc(Cl)nc(Cl)c1` [Compound 1], in assay [1], the inhibition at 0.9 µM is less than 10%, the inhibition at 2.7 µM lay within 10 to 39% and the inhibition at 8.1 µM was greater than 70%. Besides, the pIC50 in assay [2] is 5.60 to 6.51. For the same molecule, in assay [3], the pIC50 was 5.60 to 6.51.

These data come from patent US20250197373A1, “SMALL MOLECULE COMPOUND OR SALT THEREOF OR SOLVATE OF THEM, GUANINE NUCLEOTIDE-BINDING PROTEIN G(Q) SUBUNIT ALPHA (GNAQ) INHIBITOR CONTAINING THE SAME AND METHOD FOR TREATING AND/OR PREVENTING CANCER” (INDUSTRIAL TECHNOLOGY RESEARCH INSTITUTE, priority 2023, published 2025).
